US5516756A, “Aza cyclohexapeptide compounds” (Merck & Co., Inc., priority 1994, dated 1996)
≈ marks a conversion by molar mass, not a printed value.

Tests used:
[1] = test system: Candida albicans (MY 1055); assay type: cell-based; settings: MY 1055, 24 h
Protocol: (§1) The compounds of the present invention are active against many fungi and particularly against Candida species. The antifungal properties may be illustrated with the minimum fungicidal concentration (MFC) determination against certain Candida organisms in a microbroth dilution assay carded out in a Yeast Nitrogen Base (DIFCO) medium with 1% dextrose (YNBD).
(§2) In a representative assay, compounds were solubilized in 100% dimethyl sulfoxide (DMSO) at an initial concentration of 5 mg/ml. Once dissolved, the drug stock was brought to a concentration of 512 μg/ml by dilution in water such that the final DMSO concentration was about 10 percent. The solution was then dispensed via a multichannel pipetter into the first column of a 96-well plate (each well containing 0.075 ml of YNBD), resulting in a drug concentration of 256 μg/ml. Compounds in the first column were diluted 2-fold across the rows yielding final drug concentration ranging from 256 μg/ml to 0.12 μg/ml.
(§3) Four-hour broth cultures of organisms to be tested were adjusted using a spectrophotometer at 600 nm to equal a 0.5 McFarland Standard. This suspension was diluted 1:100 in YNBD to yield a cell concentration of 1-5×10^4 colony forming units (CFU)/ml. Aliquots of the suspension (0.075 ml) were inoculated into each well of the microtiter plate resulting in a final cell inoculum of 5-25×10^3 CFU/ml and final drug concentrations ranging from 128 μg/ml to 0.06 μg/ml. Each assay included one row for drug-free control wells and one row for cell-free control wells.
(§4) After 24 hours of incubation, the microtiter plates were shaken gently on a shaker to resuspend the cells. The MIC-2000 inoculator was used to transfer a 1.5 microliter sample from each well of the 96-well microtiter plate to a single reservoir inoculum plate containing Sabouraud dextrose agar (SDA). The inoculated SDA plates were incubated for 24 hours at 35° C. and then read for minimum fungicidal concentration (MFC). MFC is defined as the lowest concentration of drug showing no growth or less than 4 colonies per spot. […]

[2] = test system: Candida parapsilosis (MY 1010); assay type: cell-based; settings: MY 1010, 24 h
Protocol: as §1, §2, §3, §4

[3] = test system: Candida tropicalis (MY 1012); assay type: cell-based; settings: MY 1012, 24 h
Protocol: as §1, §2, §3, §4

Candida albicans MY 1055 = assay: In vivo effectiveness: kidney CFU in mice infected I.V. with Candida albicans; settings: 0.07 mg/kg i.p. twice daily for four consecutive days; female DBA/2 mice; CFU per gram of kidneys after seven days
Protocol: The in vivo effectiveness of the compounds against fungi may be seen in the following assay.
Growth from an overnight SDA culture of Candida albicans MY 1055 was suspended in sterile saline and the cell concentration determined by hemacytometer count and the cell suspension adjusted to 3.75×10^5 cells/ml. Then 0.2 milliliter of this suspension was administered I.V. in the tail vein of mice so that the final inoculum is 7.5×10^4 cells/mouse.
The assay was then carried out by administering aqueous solutions of Compound I at various concentrations intraperitoneally (I.P.), twice daily (b.i.d.) for four consecutive days to 18 to 20 gram female DB A/2 mice, which previously had been infected with Candida albicans (MY 1055) in the manner described above. Distilled water was administered I.P. to C. albicans challenged mice as controls. After seven days, the mice were sacrificed by carbon dioxide gas, paired kidneys were removed aseptically and placed in sterile polyethylene bags containing 5 milliliters of sterile saline. The kidneys were homogenized in the bags, serially diluted in sterile saline and aliquots spread on the surface of SDA plates. The plates were incubated at 35° C. for 48 hours and yeast colonies enumerated for determination of colony forming units (CFU) per gram of kidneys. […]

## CCC(C)CC(C)CCCCCCCCC(=O)N[C@H]1C[C@@H](O)[C@@H](NC(=O)[C@@H](N)CN)NC(=O)[C@@H]2[C@@H](O)CCN2C(=O)[C@H]([C@H](O)CCN)NC(=O)[C@H]([C@H](O)[C@@H](O)c2ccc(O)cc2)NC(=O)[C@@H]2C[C@@H](O)CN2C(=O)[C@H]([C@@H](C)O)NC1=O (stereo partly shown) [Compound I]
[1]
  minimum fungicidal concentration (MFC): 1 µg/mL (≈ 0.88 µM)
[2]
  minimum fungicidal concentration (MFC): 0.5 µg/mL (≈ 0.44 µM)
[3]
  minimum fungicidal concentration (MFC): 1 µg/mL (≈ 0.88 µM)
Candida albicans MY 1055
  reduction of recoverable Candida CFUs: greater than 99%
